Measured values published in PMC3508153 (Journal of medicinal chemistry, 2012).

What was measured:
in vivo [1] = conditions: rat, plasma, po, 10 mg/kg
in vivo [2] = conditions: rat, plasma, iv, 2 mg/kg
[3] = In vivo PK after oral administration in rats, incl. brain and plasma levels; conditions: rat, oral 10 mg/kg; for Vd: sodium salt; for Brain: brain harvested at or near Tmax; for Plasma: plasma harvested at or near Tmax
in vivo [4] = conditions: rat, plasma, ip, 10 mg/kg

Compound: O=C(O)c1cc(-c2cccc(COc3ccc4c(c3)CN(C3CCCC3)C4=O)c2)ccc1Cl [Compound 2]
- AUC(0-t) (in vivo [1]): 42.5 µM·h
- AUC(0-t) (in vivo [2]): 11.8 µM·h

Compound: O=C(O)c1cc(-c2cccc(COc3ccc4c(=O)n(C5CC5)sc4c3)c2)ccc1Cl [Compound 3e, 4-Chloro-3'-((2-cyclopropyl-3-oxo-2,3-dihydrobenzo[d]isothiazol-6-yloxy)methyl)biphenyl-3-carboxylic acid]
- AUC(0-t) (in vivo [1]): 61.5 µM·h
- Vd [3]: 4.1 mL
- Brain [3]: 0.03 ± 0.01 µM
- Plasma [3]: 0.8 ± 0.2 µM

Compound: COc1ccc(C(=O)O)cc1-c1cccc(COc2ccc3c(c2)CN(C2CCCC2)C3=O)c1 [Compound 15a, 3'-((2-Cyclopentyl-1-oxoisoindolin-5-yloxy)methyl)-6-methoxybiphenyl-3-carboxylic acid]
- AUC(0-t) (in vivo [1]): 12 µM·h
- Vd [3]: 10875.2 mL
- Brain [3]: 0.18 ± 0.01 µM
- Plasma [3]: 1.46 ± 0.29 µM

Compound: O=C(O)c1cc(-c2cccc(COc3ccc4c(c3)CN(C3CCCC3)C4=O)c2)ccc1O [Compound 15b, 3'-((2-Cyclopentyl-1-oxoisoindolin-5-yloxy)methyl)-4-hydroxybiphenyl-3-carboxylic acid]
- AUC(0-t) (in vivo [1]): 7.1 µM·h
- AUC(0-t) (in vivo [2]): 2.57 µM·h
- Vd [3]: 28.0 mL
- Brain [3]: 0.0071 ± 0.0004 µM
- Plasma [3]: 0.21 ± 0.046 µM

Compound: O=C(O)c1cc(-c2cccc(-c3ccc4c(c3)CN(C3CCCC3)C4=O)c2)ccc1Cl [Compound 24, 4-Chloro-3'-(2-cyclopentyl-1-oxoisoindolin-5-yl)biphenyl-3-carboxylic acid]
- AUC(0-t) (in vivo [1]): 2.67 µM·h
- AUC(0-t) (in vivo [4]): 3.23 µM·h
- Vd [3]: 96.2 mL
